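A five-concentration, 48-hour dose response in 96-well plates underlies each endpoint, interpolated linearly between surrounding concentrations. The concentration for 50% growth inhibition is given as GI50.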 Active and inactive are the calls of the source. Rule as the data show it: active = GI50 up to about 1.1 µM and inactive = higher. *1 amine or outer side, *2 acyl side, *3 side chain or, on linkers, in order; H or OH if unused. Where a SMILES comes first, the peptide text is derived from it. Bridges are numbered along the chain shown (N, C = ends). Roman numbers before positions name the chains, in order. [ ]: non-standard residue; d: D form. Actinocin(1to9) = Cc1c2oc3c(C)ccc(C(=O)[*:2])c3nc-2c(C(=O)[*:1])c(N)c1=O; NMeV = CN[CH](C(=O)O)C(C)C; Sar = CNCC(=O)O
Tests used:
Assay in all cases: inhibition of tumour cell growth, NCI panel, 48 h
UO-31 = tested on: UO-31
LOX IMVI = tested on: LOX IMVI
HT-29 = tested on: HT-29
UACC-62 = tested on: UACC-62
SNB-19 = tested on: SNB-19
DU-145 = tested on: DU-145
CCRF-CEM = tested on: CCRF-CEM
786-0 = tested on: 786-0
MCF7 = tested on: MCF7
SW-620 = tested on: SW-620
ACHN = tested on: ACHN
KM12 = tested on: KM12
OVCAR-3 = tested on: OVCAR-3
RXF 393 = tested on: RXF 393
HCT-116 = tested on: HCT-116
K562 = tested on: K562
SN12C = tested on: SN12C
U-251 = tested on: U-251
TK-10 = tested on: TK-10
SNB-78 = tested on: SNB-78

Structure (SMILES) | GI50 (UO-31) | GI50 (LOX IMVI) | GI50 (HT-29) | GI50 (UACC-62) | GI50 (SNB-19) | GI50 (DU-145) | GI50 (CCRF-CEM) | GI50 (786-0) | GI50 (MCF7) | GI50 (SW-620) | GI50 (ACHN) | GI50 (KM12) | GI50 (OVCAR-3) | GI50 (RXF 393) | GI50 (HCT-116) | GI50 (K562) | GI50 (SN12C) | GI50 (U-251) | GI50 (TK-10) | GI50 (SNB-78)
Nc1nc(N)nc(CCCc2nc(N)nc(N)n2)n1 | > 100 µM (inactive) | > 100 µM (inactive) | > 100 µM (inactive) | > 100 µM (inactive) | > 100 µM (inactive) | > 100 µM (inactive) | > 100 µM (inactive) | > 100 µM (inactive) | > 100 µM (inactive) | > 100 µM (inactive) | > 100 µM (inactive) | > 100 µM (inactive) | > 100 µM (inactive) | > 100 µM (inactive) | > 100 µM (inactive) | > 100 µM (inactive) | > 100 µM (inactive) | > 100 µM (inactive) | > 100 µM (inactive) | –
CCCC(=O)O[C@H]1C=C2C[C@@]34SS[C@]5(CC6=C[C@H](OC(C)=O)[C@@H]7O[C@@H]7[C@H]6N5C3=O)C(=O)N4[C@@H]2[C@H]2O[C@H]21 | 0.059 µM (active) | 0.0208 µM (active) | 0.00569 µM (active) | 0.0225 µM (active) | 0.0126 µM (active) | 0.0356 µM (active) | 0.0116 µM (active) | < 0.005 µM (active) | 0.0132 µM (active) | 0.00548 µM (active) | 0.0186 µM (active) | 0.184 µM (active) | 0.00738 µM (active) | 0.0205 µM (active) | 0.00847 µM (active) | 0.00923 µM (active) | 0.00567 µM (active) | 0.00822 µM (active) | 0.0347 µM (active) | –
Cc1ccc2c(=O)c(C(=O)Nn3c(C)csc3=S)c[nH]c2n1 | > 100 µM (inactive) | > 100 µM (inactive) | > 100 µM (inactive) | > 100 µM (inactive) | > 100 µM (inactive) | > 100 µM (inactive) | > 100 µM (inactive) | > 100 µM (inactive) | > 100 µM (inactive) | > 100 µM (inactive) | > 100 µM (inactive) | > 100 µM (inactive) | > 100 µM (inactive) | > 100 µM (inactive) | > 100 µM (inactive) | > 100 µM (inactive) | > 100 µM (inactive) | > 100 µM (inactive) | > 100 µM (inactive) | –
O=C(CSCC(=O)N/N=C/c1ccccc1)N/N=C\c1ccccc1 | > 100 µM (inactive) | > 100 µM (inactive) | > 100 µM (inactive) | > 100 µM (inactive) | > 100 µM (inactive) | > 100 µM (inactive) | > 100 µM (inactive) | > 100 µM (inactive) | > 100 µM (inactive) | > 100 µM (inactive) | > 100 µM (inactive) | 16.7 µM (inactive) | > 100 µM (inactive) | 65.8 µM (inactive) | > 100 µM (inactive) | > 100 µM (inactive) | > 100 µM (inactive) | > 100 µM (inactive) | > 100 µM (inactive) | –
Nc1nc(Cl)c(N)c(NCC2(CO)CCC(OCc3ccccc3)C2)n1 (centres undefined) | > 100 µM (inactive) | 18.5 µM (inactive) | > 100 µM (inactive) | > 100 µM (inactive) | > 100 µM (inactive) | > 100 µM (inactive) | > 100 µM (inactive) | > 100 µM (inactive) | 47.8 µM (inactive) | > 100 µM (inactive) | > 100 µM (inactive) | > 100 µM (inactive) | > 100 µM (inactive) | 8.85 µM (inactive) | > 100 µM (inactive) | 1.33 µM (inactive) | > 100 µM (inactive) | > 100 µM (inactive) | > 100 µM (inactive) | –
O=C1NC(NNc2ccccc2)=N/C1=C\c1ccccc1O | > 100 µM (inactive) | > 100 µM (inactive) | 61 µM (inactive) | 53.3 µM (inactive) | > 100 µM (inactive) | 67 µM (inactive) | 0.0183 µM (active) | 62.5 µM (inactive) | 40.4 µM (inactive) | 58.1 µM (inactive) | 49.1 µM (inactive) | 33.2 µM (inactive) | 96.2 µM (inactive) | 40 µM (inactive) | 48.2 µM (inactive) | 50.2 µM (inactive) | 73.6 µM (inactive) | 70.5 µM (inactive) | 67.3 µM (inactive) | –
CC1(C)CC(=O)C2(CC(CSc3ccccc3)C(CS(=O)(=O)c3ccccc3)C2)C(=O)C1 (centres undefined) | > 100 µM (inactive) | > 100 µM (inactive) | 78.3 µM (inactive) | > 100 µM (inactive) | > 100 µM (inactive) | > 100 µM (inactive) | > 100 µM (inactive) | > 100 µM (inactive) | > 100 µM (inactive) | > 100 µM (inactive) | > 100 µM (inactive) | > 100 µM (inactive) | > 100 µM (inactive) | > 100 µM (inactive) | > 100 µM (inactive) | > 100 µM (inactive) | > 100 µM (inactive) | > 100 µM (inactive) | > 100 µM (inactive) | –
CC(C)OC(=O)C1=C(O)c2ccccc2S(=O)(=O)N1 | – | > 100 µM (inactive) | > 100 µM (inactive) | > 100 µM (inactive) | > 100 µM (inactive) | – | > 100 µM (inactive) | > 100 µM (inactive) | – | > 100 µM (inactive) | > 100 µM (inactive) | > 100 µM (inactive) | > 100 µM (inactive) | – | > 100 µM (inactive) | > 100 µM (inactive) | > 100 µM (inactive) | > 100 µM (inactive) | > 100 µM (inactive) | > 100 µM (inactive)
O=C(O)C1CC2C3CCC2C1C3=O (centres undefined) | > 100 µM (inactive) | > 100 µM (inactive) | > 100 µM (inactive) | > 100 µM (inactive) | > 100 µM (inactive) | > 100 µM (inactive) | > 100 µM (inactive) | > 100 µM (inactive) | > 100 µM (inactive) | > 100 µM (inactive) | > 100 µM (inactive) | > 100 µM (inactive) | > 100 µM (inactive) | > 100 µM (inactive) | > 100 µM (inactive) | > 100 µM (inactive) | > 100 µM (inactive) | > 100 µM (inactive) | > 100 µM (inactive) | –
NC(=O)c1cn(C2OC(CO)C(O)C2O)c(=O)[nH]c1=O (centres undefined) | > 100 µM (inactive) | > 100 µM (inactive) | > 100 µM (inactive) | > 100 µM (inactive) | – | – | > 100 µM (inactive) | > 100 µM (inactive) | – | > 100 µM (inactive) | > 100 µM (inactive) | > 100 µM (inactive) | > 100 µM (inactive) | – | > 100 µM (inactive) | > 100 µM (inactive) | – | > 100 µM (inactive) | > 100 µM (inactive) | > 100 µM (inactive)
CN(NC(=O)/C(=C\c1ccco1)NC(=O)c1ccccc1)c1cn[nH]c(=O)c1Cl | > 100 µM (inactive) | 23.2 µM (inactive) | 58.6 µM (inactive) | > 100 µM (inactive) | 97.9 µM (inactive) | > 100 µM (inactive) | 24.6 µM (inactive) | 41.3 µM (inactive) | > 100 µM (inactive) | 45.9 µM (inactive) | > 100 µM (inactive) | 40.6 µM (inactive) | 27.9 µM (inactive) | > 100 µM (inactive) | 51.5 µM (inactive) | 60.1 µM (inactive) | 53.2 µM (inactive) | 79.4 µM (inactive) | > 100 µM (inactive) | –
CCCCCCCCCCCCCCCC(=O)N(CCCCCCCCCCC(=O)O)CC(O)C(O)C(OC1OC(CO)C(O)C(O)C1O)C(O)CO (centres undefined) | 35.1 µM (inactive) | 19.5 µM (inactive) | 22.8 µM (inactive) | 18.9 µM (inactive) | 24.5 µM (inactive) | 91 µM (inactive) | 26.5 µM (inactive) | 74.5 µM (inactive) | 53.6 µM (inactive) | 22.1 µM (inactive) | > 100 µM (inactive) | 18.8 µM (inactive) | > 100 µM (inactive) | 48.1 µM (inactive) | 49.2 µM (inactive) | 22.5 µM (inactive) | 20.5 µM (inactive) | 18 µM (inactive) | > 100 µM (inactive) | –
O=C1c2cccnc2-c2nccc3ccnc1c23 | 0.726 µM (active) | 0.418 µM (active) | 0.575 µM (active) | 0.601 µM (active) | 1.03 µM (active) | 0.966 µM (active) | 0.0309 µM (active) | 0.461 µM (active) | 0.24 µM (active) | 0.474 µM (active) | 0.158 µM (active) | 1.54 µM (inactive) | 0.343 µM (active) | 1.13 µM (inactive) | 0.0865 µM (active) | 0.0456 µM (active) | 1.04 µM (active) | 1.05 µM (active) | 1.7 µM (inactive) | –
COc1ccc(CC2NC(=O)C(NC(=O)c3c4nc5c(C(=O)NC6C(=O)NC(Cc7ccc(OC)cc7)C(=O)N7CCCC7C(=O)N(C)CC(=O)N(C)C(C(C)C)C(=O)OC6C)ccc(C)c5oc-4c(C)c(=O)c3N)C(C)OC(=O)C(C(C)C)N(C)C(=O)CN(C)C(=O)C3CCCN3C2=O)cc1 (centres undefined) (I: TY(Me)P[Sar][NMeV] / II: TY(Me)P[Sar][NMeV]; ester I:1-I:C, II:1-II:C; linker I:N-II:N via Actinocin(1to9); configuration not given here) | 0.00822 µM (active) | < 0.001 µM (active) | < 0.001 µM (active) | < 0.001 µM (active) | < 0.001 µM (active) | < 0.001 µM (active) | < 0.001 µM (active) | 0.0141 µM (active) | < 0.001 µM (active) | < 0.001 µM (active) | < 0.001 µM (active) | < 0.001 µM (active) | 0.0123 µM (active) | 0.01 µM (active) | < 0.001 µM (active) | < 0.001 µM (active) | < 0.001 µM (active) | < 0.001 µM (active) | 0.0351 µM (active) | –

Reference: ChEMBL document CHEMBL1201862, “PubChem BioAssay data set” (2004)
